Holding throughout (format): cell-based
One test has as its target T1, TRP channel (TRPM8) (Mus musculus, UniProt Q8R4D5).
T1 construct: Full-length cDNAs for mosquito (Anopheles gambiae) odorant receptor (OR1, OR2, OR7, OR8, OR28), and fly (Drosophila melanogaster) odorant receptor (Or47a, Or83b), mouse TRP channel (TRPM8); expressed in transfected cells
Nature of the test: Ca2+-imaging of stable HEK293T cell line TRPM8. The note with it: for inhibition at 4 µM: HEK-293T, compound applied at 4 μM, read-out: Percent Inhibition TRPM8. The protocol: (§1) Full-length cDNAs for mosquito (Anopheles gambiae) odorant receptor (OR1, OR2, OR7, OR8, OR28), and fly (Drosophila melanogaster) odorant receptor (Or47a, Or83b), mouse TRP channel (TRPM8), and mouse serotonin receptor (5HT3) were obtained and subcloned into mammalian expression vectors. The following mammalian expression vectors were used:
(§2) Stable cell lines OR1/OR7, OR2/OR7, OR8/OR7, OR10/OR7, OR28/OR7 and TRPM8 were generated from HEK293T cells. HEK293T-based cell lines were cultured in DMEM supplemented with these additional antibiotics: 6 μg/mL blasticidin and 1 μg/mL puromycin, with the exception of the TRPM8 cell lines, which was cultured in DMEM supplemented with 1 μg/mL puromycin.
(§3) Cells were trypsinized and split into 35 mm dishes one day before transfection. Confluent cells (60-70%) in 35 mm dishes were transfected with 1 μg of insect OR(X) plasmids in pME18s-bla and 1 μg of OR7-pME18s-puro using lipofectamine 2000. For Anopheles odorant receptors, two plasmids were co-transfected into HEK cells: the ligand-specific receptor (OR1, OR2, OR8, OR28) and the corresponding olfactory co-receptor: OR7. Cell lines containing TRPM8 were transfected with single plasmid.
(§4) Stable cell lines were cultured in 10 cm dishes, and confluent cells (70-80%) were trypsinized. 10,000 cells/20 μL were transferred into each well of 384-well plates coated with poly-D-lysine, and cultured for 2 days. For Flip-In T-Rex cells (cell lines expressing Or47a/Or83b and 5HT3), 5 μL of tetracycline (5 μg/mL) were added 1 day before the assay. 20 μL of Ca-4 dye was loaded into each well for 1.5 hr at room temperature in the dark, and the dye-loaded plates were subjected to Ca^2+-imaging using a Hamamatsu FDSS6000 real time fluorescence plate reader. Odorant solutions (9× final concentration) were prepared by dissolving 1M stock solutions into Hank's Buffered Salt Solution (HBSS), and 30 μL of odor solution was transferred to each well in 384-well plates.
(§5) Compounds ([…] in DMSO) were stored in 384-well plates, and last two columns (32 wells total) contained only DMSO. 200 nL of small compounds were transferred into the odorant plates before the assay using the Perkin-Elmer Janus workstation. The odorant plates were spun down to remove air bubbles, and placed on the FDSS6000 plate loader, and 5 μL of odorant solution was applied to the cell plate on the FDSS6000. Ca^2+ increase was monitored with fluorescence at 525 nm by excitation at 485 nm.

The target in the next test is T2, Or47a/Or83b (Drosophila melanogaster, UniProt P81921+Q9VNB5).
T2 construct: Full-length cDNAs for mosquito (Anopheles gambiae) odorant receptor (OR1, OR2, OR7, OR8, OR28), and fly (Drosophila melanogaster) odorant receptor (Or47a, Or83b); expressed in transfected cells
T2 sequence (P81921 1-385): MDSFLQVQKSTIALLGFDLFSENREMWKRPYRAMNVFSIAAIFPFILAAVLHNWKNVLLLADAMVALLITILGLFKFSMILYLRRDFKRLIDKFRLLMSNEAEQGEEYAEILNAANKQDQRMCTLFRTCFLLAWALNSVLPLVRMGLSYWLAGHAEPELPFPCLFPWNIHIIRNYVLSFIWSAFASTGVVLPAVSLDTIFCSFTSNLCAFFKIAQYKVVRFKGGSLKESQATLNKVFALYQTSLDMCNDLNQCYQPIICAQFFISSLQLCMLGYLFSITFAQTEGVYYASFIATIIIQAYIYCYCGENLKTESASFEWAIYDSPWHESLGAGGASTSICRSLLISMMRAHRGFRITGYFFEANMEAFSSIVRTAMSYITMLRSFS
T2 sequence (Q9VNB5 1-486): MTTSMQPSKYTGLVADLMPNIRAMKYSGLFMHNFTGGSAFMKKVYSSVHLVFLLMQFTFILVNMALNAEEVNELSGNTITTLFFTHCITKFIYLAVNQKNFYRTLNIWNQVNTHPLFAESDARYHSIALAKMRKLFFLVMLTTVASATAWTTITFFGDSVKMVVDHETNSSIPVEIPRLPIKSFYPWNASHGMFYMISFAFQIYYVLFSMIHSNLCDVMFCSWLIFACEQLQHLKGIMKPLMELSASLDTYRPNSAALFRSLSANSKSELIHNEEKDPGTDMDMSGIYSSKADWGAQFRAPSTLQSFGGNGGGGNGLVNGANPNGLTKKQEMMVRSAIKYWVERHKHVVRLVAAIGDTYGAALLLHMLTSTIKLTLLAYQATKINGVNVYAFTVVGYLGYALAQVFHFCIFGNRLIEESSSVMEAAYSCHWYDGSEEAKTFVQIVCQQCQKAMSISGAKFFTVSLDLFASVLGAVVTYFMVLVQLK
Nature of the test: Ca2+-imaging of stable Flip-In T-Rex cell line Or47a/Or83b. Particulars: for inhibition at 4 µM: compound applied at 4 μM, read-out: Percent Inhibition OR47a OR83b. The protocol: as §1
Stable cell lines Or47a/Or83b and 5HT3 were generated from Flip-In T-Rex cells. Flip-In T-Rex-based cell lines were cultured in DMEM supplemented with these additional antibiotics: 6 μg/mL blasticidin and 100 μg/mL hygromycin.
Cells were trypsinized and split into 35 mm dishes 1 day before transfection. Confluent cells (60-70%) in 35 mm dishes were co-transfected with 1 μg of Or47a/Or83b plasmid in pcDNA5/FRT/TO/IRES plus the pOG44 plasmid or 1 μg of 5HT3 plasmid in pcDNA5/FRT/TO plus the pOG44 plasmid using lipofectamine 2000. Co-transfection of pOG44 and pcDNA5/FRT/TO/IRES or pcDNA5/FRT/TO allows expression of Flp recombinase and integration of the pcDNA5 plasmid into the genome via the FRT site. After one day of incubation, the transfected cells were transferred into 10 cm dishes with DMEM containing antibiotics: 20 μg/mL of hygromycin and 6 μg/mL of blasticidin. The concentration of Hygromycin was increased to 100 μg/mL when the population of cells became 30-40% confluent. The cells were cultured by changing medium every two days until cell clumps appeared. The clumps were picked and transferred into 96 well plates with DMEM containing 100 μg/mL of Hygromycin and 6 μg/mL of blasticidin. The cells were grown and transferred to 24 well plates, and ligand-evoked calcium increases were tested using the Hamamatsu FDSS6000 real time fluorescence plate reader.
as §4, §5

The target in the next test is OR28/OR7 (Anopheles gambiae, UniProt A0A1S4GFY3+Q7QCC7). Nature of the test: Ca2+-imaging of stable HEK293T cell line OR28/OR7. The note with it: for inhibition at 4 µM: HEK-293T, compound applied at 4 μM, read-out: Percent Inhibition OR28 OR7. On the procedure: as §1, §2, §3, §4, §5
Chain of OR28/OR7 (A0A1S4GFY3 entry or part of it): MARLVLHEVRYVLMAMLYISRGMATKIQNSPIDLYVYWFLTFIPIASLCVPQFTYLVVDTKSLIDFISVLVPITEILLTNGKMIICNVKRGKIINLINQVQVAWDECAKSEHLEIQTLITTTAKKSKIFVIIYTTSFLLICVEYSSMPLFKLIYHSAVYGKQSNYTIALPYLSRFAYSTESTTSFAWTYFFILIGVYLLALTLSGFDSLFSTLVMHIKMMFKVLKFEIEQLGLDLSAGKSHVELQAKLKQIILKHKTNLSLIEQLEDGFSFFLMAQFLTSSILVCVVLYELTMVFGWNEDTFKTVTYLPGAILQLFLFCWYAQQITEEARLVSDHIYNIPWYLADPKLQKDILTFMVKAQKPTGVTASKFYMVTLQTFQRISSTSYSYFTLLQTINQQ
Chain of OR28/OR7 (Q7QCC7 whole entry): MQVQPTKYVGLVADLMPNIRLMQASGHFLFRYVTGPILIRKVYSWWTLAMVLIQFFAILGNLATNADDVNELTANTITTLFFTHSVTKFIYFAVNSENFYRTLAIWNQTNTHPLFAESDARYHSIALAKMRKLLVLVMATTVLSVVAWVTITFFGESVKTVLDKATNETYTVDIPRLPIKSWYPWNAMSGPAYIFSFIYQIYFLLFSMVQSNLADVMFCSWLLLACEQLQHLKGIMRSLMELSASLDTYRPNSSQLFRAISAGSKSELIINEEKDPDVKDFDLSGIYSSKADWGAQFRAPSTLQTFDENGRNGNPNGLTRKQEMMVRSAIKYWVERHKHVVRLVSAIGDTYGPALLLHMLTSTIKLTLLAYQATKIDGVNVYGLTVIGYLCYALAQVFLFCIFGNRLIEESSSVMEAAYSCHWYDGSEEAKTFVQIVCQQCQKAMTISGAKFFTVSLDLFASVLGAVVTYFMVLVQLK
Setting [1] is: ligand menthol 300 μM, read-out: IC50 TRPM8.
Where [2] appears, read: ligand pentyl acetate 30 μM, read-out: IC50 OR47a OR83b.

Each structure is given as a SMILES string. Read-outs that look alike come from different tables or passages of the source.

T1 sequence (Q8R4D5 whole entry): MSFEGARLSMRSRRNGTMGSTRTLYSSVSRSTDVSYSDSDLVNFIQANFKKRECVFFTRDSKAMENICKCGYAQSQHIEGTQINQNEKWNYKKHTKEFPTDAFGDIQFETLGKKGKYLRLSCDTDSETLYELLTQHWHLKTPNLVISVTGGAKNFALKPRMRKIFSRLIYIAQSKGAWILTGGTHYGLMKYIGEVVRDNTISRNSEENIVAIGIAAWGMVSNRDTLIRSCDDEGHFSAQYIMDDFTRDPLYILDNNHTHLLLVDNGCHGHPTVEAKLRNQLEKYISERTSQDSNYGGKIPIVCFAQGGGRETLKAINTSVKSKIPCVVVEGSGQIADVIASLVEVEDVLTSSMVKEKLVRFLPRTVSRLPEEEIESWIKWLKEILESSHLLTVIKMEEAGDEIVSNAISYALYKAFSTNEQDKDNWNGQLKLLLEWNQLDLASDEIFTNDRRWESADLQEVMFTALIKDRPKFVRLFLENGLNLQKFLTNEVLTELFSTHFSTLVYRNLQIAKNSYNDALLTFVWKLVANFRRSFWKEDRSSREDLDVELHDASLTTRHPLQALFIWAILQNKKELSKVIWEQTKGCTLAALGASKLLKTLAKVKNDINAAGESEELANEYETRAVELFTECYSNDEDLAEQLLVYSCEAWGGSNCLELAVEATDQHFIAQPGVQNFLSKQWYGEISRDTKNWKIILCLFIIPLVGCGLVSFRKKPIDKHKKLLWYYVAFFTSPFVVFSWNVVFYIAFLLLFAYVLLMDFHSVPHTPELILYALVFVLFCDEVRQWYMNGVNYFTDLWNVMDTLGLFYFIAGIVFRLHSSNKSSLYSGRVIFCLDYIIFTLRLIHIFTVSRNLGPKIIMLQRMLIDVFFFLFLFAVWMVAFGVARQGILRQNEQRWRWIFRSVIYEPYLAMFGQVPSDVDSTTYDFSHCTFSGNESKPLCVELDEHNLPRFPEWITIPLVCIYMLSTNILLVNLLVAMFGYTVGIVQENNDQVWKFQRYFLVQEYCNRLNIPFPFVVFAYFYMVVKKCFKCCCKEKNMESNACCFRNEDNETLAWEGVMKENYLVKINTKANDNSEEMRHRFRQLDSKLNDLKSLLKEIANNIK

What is called inhibition is how much of the control response was suppressed. For orientation: IC50 means the midpoint of a concentration-inhibition curve. Turning to `CCN(C)c1onc(-c2ccccc2)c1CN(CCCOC)C(=O)c1ccco1` [RU-0051926], the inhibition at 4 µM on TRP channel (TRPM8) is < 25%; at Or47a/Or83b it was 26 to 50%; on OR28/OR7, > 75%. Further, on OR28/OR7 (Table B, read-out: IC50 OR28), the IC50 was > 1 µM.

On to `CCOC(=O)C1CCCN(C(=O)c2csc(CSc3nnc(-c4cccc(OC)c4)n3-c3ccc(C)cc3)n2)C1` (stereo not shown) [RU-0071628], for which the inhibition at 4 µM at TRP channel (TRPM8) is < 25%; at Or47a/Or83b, 51 to 74%; on OR28/OR7, > 75%. For the same compound, the IC50 at Or47a/Or83b (Table B, read-out: IC50 OR47a) is > 1 µM; at OR28/OR7 (Table B, read-out: IC50 OR28), < 0.1 µM.

Consider `CC(C)Nc1nc(Cl)nc(NC(C)C)n1` [RU-T1], for which the IC50 was > 20 µM on TRP channel (TRPM8) (setting [1]), > 20 µM at Or47a/Or83b (setting [2]) and > 220 µM against OR28/OR7.

Turning to `CCN(CC)C(=O)c1cccc(C)c1` [DEET, N,N-diethyl-m-toluamide, reference compound], the IC50 was > 20 µM at TRP channel (TRPM8) (setting [1]); > 50 µM at Or47a/Or83b (setting [2]); > 50 µM at OR28/OR7 (ligand acetophenone 300 μM, read-out: IC50 OR28 OR7).

Regarding `N#Cc1ccccc1C(=O)N1CCOC(COCc2c(Cl)cccc2Cl)C1` (stereo not shown) [RU-0050405], the inhibition at 4 µM at TRP channel (TRPM8) was < 25%; on Or47a/Or83b, 51 to 74%; on OR28/OR7 it was > 75%. Besides, the IC50 is > 1 µM on Or47a/Or83b (Table B, read-out: IC50 OR47a) and < 0.1 µM on OR28/OR7 (Table B, read-out: IC50 OR28).

As to `CCNc1nc(Cl)nc(NC(C)C)n1` [RU-T5], the IC50 on TRP channel (TRPM8) (setting [1]), at Or47a/Or83b (setting [2]) and against OR28/OR7 was > 20 µM throughout.

With `CC(C)Nc1nc(Cl)nc(NCc2ccccc2)n1` [RU-T9], the values for the IC50 at TRP channel (TRPM8), on Or47a/Or83b and against OR28/OR7 were > 20 µM, > 20 µM and > 50 µM, respectively.

In the case of `Cc1nc(NC(C)C)nc(NC(C)C)n1` [RU-T6], the results for the IC50 on TRP channel (TRPM8), against Or47a/Or83b and at OR28/OR7 were > 20 µM, > 20 µM and 20 to 50 µM, respectively.

Regarding `O=C(c1ccco1)N(Cc1nccn1Cc1c(F)cccc1Cl)C1CC1` [RU-0048046], the inhibition at 4 µM was < 25% at TRP channel (TRPM8), 26 to 50% at Or47a/Or83b and > 75% at OR28/OR7. Further, the IC50 at OR28/OR7 (Table B, read-out: IC50 OR28) is < 0.1 µM.

Consider `O=C(Cc1cccc(F)c1)N1CCOC(COCc2c(Cl)cccc2Cl)C1` (stereo not shown) [RU-0050398], for which the results for the inhibition at 4 µM on TRP channel (TRPM8), on Or47a/Or83b and at OR28/OR7 were < 25%, 26 to 50% and > 75%, respectively. Moreover, the IC50 at OR28/OR7 (Table B, read-out: IC50 OR28) lay within 0.1 to 1 µM.

Values taken from patent US20130324522A1, “INSECT ODORANT RECEPTOR ANTAGONISTS” (THE ROCKEFELLER UNIVERSITY, priority 2010, published 2013).
